In patent US20220071971A1, “MACROCYCLIC COMPOUNDS AND THEIR USE IN THE TREATMENT OF DISEASE” (NOVARTIS AG, priority 2018, published 2022):

Target: T1, delF508-CFTR (Homo sapiens, UniProt P13569, DEL508-508)
T1 construct: expressed in transfected cells
Experiment: Measurement of delF508-CFTR-HRP surface expression in CFBE41o- cells
Type: cell-based
Conditions: for Emax: CFBE41o-, read-out: DelF508-CFTR-HRP Amax %; for EC50: HRP-tagged delF508-CFTR surface expression, CFBE41o- cells, 24 h with compound, 10-point curve, highest concentration 10 μM
Description: Measurement of deIF508-CFTR-HRP Surface Expression in CFBE41o-Cells
This assay quantifies the cell surface expressions of the mutant CFTR channel using an extracellular HRP tag.
A cellular assay was developed to measure surface expression of horseradish peroxidase (HRP) tagged delF508-CFTR in the human bronchial epithelial immortalized CFBE41o-cell line (Phuan, P. W., et al, (2014) Molecular Pharmacology 86:42-51). Specifically, the HRP sequence was inserted into the fourth extracellular loop of delF508-CFTR and stably expressed in CFBE41o-cells. Cells were seeded in 384 well plate at a density of 5000 cells/well and incubated at 37° C. for 12 to 24 hours in medium (Gibco MEM #11095, 10% FBS, 10 mM HEPES, […], 200 μg/mL G418, 3 μg/mL Puromycin). The delF508-CFTR-HRP expression was induced with 500 ng/mL doxycycline (Sigma D-9891, dissolved in H2O and sterile filtered) in medium and the cells were incubated at 37° C. for 48 h. Old medium was removed and fresh medium was added containing 500 ng/mL doxycycline and unknown test compound at required test concentration in DMSO, not exceeding 0.5% final DMSO concentration. The highest concentration tested was 10 μM with a 10-point concentration response curve using a 3-fold dilution. After addition of compounds, the cells were incubated for 24 h at 37° C. On the final day, cells were washed four times in PBS containing 1 mM MgCl2 and 0.1 mM CaCl2. HRP-Substrate (SuperSignal ELISA Pico, Fisher #37069) 20 μl/well was added and the luminescence signal was determined (Viewlux, Perkin Elmer). Light was emitted upon addition of exogenous HRP-Substrate only when delF508-CFTR-HRP reached the cell surface and the HRP tag was accessible to the HRP-Substrate (note: HRP-Substrate cannot cross the lipid bilayer to reach delF508-CFTR-HRP misfolded within the cell).
The median activity for the lowest concentration of the compounds on each assay plate was calculated and this value was used to normalize the signal for each well on the respective plate. Three replicates at each concentrations for every compound were run to determine one EC50. The median value was determined and used to calculate compound activities as described below. Effective half maximal values (EC50) were calculated for each compound by performing logistic regression on measured dose-response data points using the equation: […]
where “Y” is the observed activity, “Bottom” is the lowest observed value, “Top” is the highest observed value, and the “Hill coefficient” gives the largest absolute value of the slope. The curve fitting is carried out by a curve fitting program implemented at GNF using Matlab (Mathworks).
The dose response curves also were used to calculate Fold Change (FC) using the equation: […]
Compound efficacy relative to the reference compound 3-(6-(1-(2,2-difluorobenzo[d][1,3]dioxol-5-yl)cyclopropane-1-carboxamido)-3-methylpyridin-2-yl)benzoic acid was determined using the following formula: […]

[1] = efficacy relative to reference compound 3-(6-(1-(2,2-difluorobenzo[d][1,3]dioxol-5-yl)cyclopropane-1-carboxamido)-3-methylpyridin-2-yl)benzoic acid

T1 sequence (P13569 with tags, fused parts or gaps DEL508-508): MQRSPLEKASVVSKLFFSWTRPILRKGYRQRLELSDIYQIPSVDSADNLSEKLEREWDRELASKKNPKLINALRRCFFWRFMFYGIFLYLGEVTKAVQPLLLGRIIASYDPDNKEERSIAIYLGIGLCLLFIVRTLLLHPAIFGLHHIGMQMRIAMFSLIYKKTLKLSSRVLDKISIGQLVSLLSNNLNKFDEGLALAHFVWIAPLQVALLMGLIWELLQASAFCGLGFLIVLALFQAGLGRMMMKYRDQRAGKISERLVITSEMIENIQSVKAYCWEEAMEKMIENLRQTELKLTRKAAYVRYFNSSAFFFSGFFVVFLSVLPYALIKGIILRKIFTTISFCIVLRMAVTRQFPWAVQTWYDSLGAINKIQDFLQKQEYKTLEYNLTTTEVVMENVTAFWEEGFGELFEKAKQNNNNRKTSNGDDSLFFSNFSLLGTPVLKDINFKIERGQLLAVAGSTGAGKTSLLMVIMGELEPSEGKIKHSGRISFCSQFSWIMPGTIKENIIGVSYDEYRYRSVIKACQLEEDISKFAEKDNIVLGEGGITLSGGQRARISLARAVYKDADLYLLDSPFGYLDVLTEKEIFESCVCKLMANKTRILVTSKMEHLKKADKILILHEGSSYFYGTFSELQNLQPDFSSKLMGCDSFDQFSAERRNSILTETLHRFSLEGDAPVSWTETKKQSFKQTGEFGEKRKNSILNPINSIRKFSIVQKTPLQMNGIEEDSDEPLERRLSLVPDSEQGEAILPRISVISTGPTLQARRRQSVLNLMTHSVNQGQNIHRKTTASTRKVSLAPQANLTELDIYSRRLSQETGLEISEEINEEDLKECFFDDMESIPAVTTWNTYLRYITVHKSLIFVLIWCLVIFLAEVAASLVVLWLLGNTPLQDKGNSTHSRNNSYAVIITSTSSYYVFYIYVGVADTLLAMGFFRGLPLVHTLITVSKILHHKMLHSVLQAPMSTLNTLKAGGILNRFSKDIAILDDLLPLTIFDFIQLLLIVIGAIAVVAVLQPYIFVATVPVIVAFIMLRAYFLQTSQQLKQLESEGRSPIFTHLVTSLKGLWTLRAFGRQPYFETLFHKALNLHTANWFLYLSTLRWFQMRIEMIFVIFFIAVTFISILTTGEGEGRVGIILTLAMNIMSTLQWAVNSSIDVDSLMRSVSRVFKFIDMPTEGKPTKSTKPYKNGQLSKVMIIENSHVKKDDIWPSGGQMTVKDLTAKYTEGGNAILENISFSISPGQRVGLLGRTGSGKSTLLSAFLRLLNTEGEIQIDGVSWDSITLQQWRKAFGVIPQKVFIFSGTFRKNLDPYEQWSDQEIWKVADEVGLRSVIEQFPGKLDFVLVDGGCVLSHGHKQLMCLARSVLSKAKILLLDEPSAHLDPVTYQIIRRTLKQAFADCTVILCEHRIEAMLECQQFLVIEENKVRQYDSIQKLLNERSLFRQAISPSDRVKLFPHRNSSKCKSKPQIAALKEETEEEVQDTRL

Emax [1] [%]	EC50 [nM]	DelF508-CFTR-HRP Amax % [1] [%]	Compound
347	2340	–	COc1ccc2nc1-c1ccccc1CCCCCN(CCCCO)c1cccc(n1)S(=O)(=O)N2 [Compound 17, 6-(4-hydroxybutyl)-2^3-methoxy-4-thia-3,6-diaza-2,5(2,6)-dipyridina-1(1,2)-benzenacycloundecaphane 4,4-dioxide]
–	361	–	O=S1(=O)Nc2ccc(C(F)(F)F)c(n2)-c2ccccc2CCCCCCCCCN(CCCO)c2cccc1n2 [Compound 45, 6-(3-hydroxypropyl)-2^3-(trifluoromethyl)-4-thia-3,6-diaza-2,5(2,6)-dipyridina-1(1,2)-benzenacyclopentadecaphane 4,4-dioxide]
259	2670	–	NCCN1CCCCCc2ccccc2-c2nc(ccc2C(F)(F)F)NS(=O)(=O)c2cccc1n2 [Compound 132, 6-(2-aminoethyl)-2^3-(trifluoromethyl)-4-thia-3,6-diaza-2,5(2,6)-dipyridina-1(1,2)-benzenacycloundecaphane 4,4-dioxide]
–	714	–	O=C(O)CCN1CCCCCCc2ccc(F)cc2-c2nc(ccc2C(F)(F)F)NS(=O)(=O)c2cccc1n2 [Compound 85, 3-(1^5-fluoro-4,4-dioxido-2^3-(trifluoromethyl)-4-thia-3,6-diaza-2,5(2,6)-dipyridina-1(1,2)-benzenacyclododecaphane-6-yl)propanoic acid]
610	606	–	O=S1(=O)Nc2ccc(C(F)(F)F)c(n2)-c2ccccc2OCCCCN(CCO)c2cccc1n2 [Compound 2, 6-(2-hydroxyethyl)-2^3-(trifluoromethyl)-11-oxa-4-thia-3,6-diaza-2,5(2,6)-dipyridina-1(1,2)-benzenacycloundecaphane 4,4-dioxide]
–	1410	224.1	8-hydroxy-2^3-(trifluoromethyl)-4-thia-3,6-diaza-2,5(2,6)-dipyridina-1(1,2)-benzenacycloundecaphane 4,4-dioxide [Compound 38]
737	445	–	O=S1(=O)Nc2ccc(C(F)(F)F)c(n2)-c2ccccc2CCCCN(CCO)c2cccc1n2 [Compound 116, 6-(2-hydroxyethyl)-2^3-(trifluoromethyl)-4-thia-3,6-diaza-2,5(2,6)-dipyridina-1(1,2)-benzenacyclodecaphane 4,4-dioxide]
188	2440	–	NCCN1CCCCc2ccccc2-c2nc(ccc2C(F)(F)F)NS(=O)(=O)c2cccc1n2 [Compound 130, 6-(2-aminoethyl)-2^3-(trifluoromethyl)-4-thia-3,6-diaza-2,5(2,6)-dipyridina-1(1,2)-benzenacyclodecaphane 4,4-dioxide]
–	1060	–	O=S1(=O)Nc2ccc(Cl)c(n2)-c2ccccc2CCCCCCOc2cccc1n2 [Compound 111, 2^3-chloro-6-oxa-4-thia-3-aza-2,5(2,6)-dipyridina-1(1,2)-benzenacyclododecaphane 4,4-dioxide]
169	1260	–	O=S1(=O)Nc2ccc(Cl)c(n2)-c2cccnc2OCCCCCNc2cccc1n2 [Compound 107, 2^3-chloro-12-oxa-4-thia-3,6-diaza-1(3,2),2,5(2,6)-tripyridinacyclododecaphane 4,4-dioxide]
186	386	–	O=S1(=O)Nc2ccc(C(F)(F)F)c(n2)-c2ccccc2CCCCC(CCCO)Oc2cccc1n2 (stereo not drawn) [Compound 109, 7-(3-hydroxypropyl)-2^3-(trifluoromethyl)-6-oxa-4-thia-3-aza-2,5(2,6)-dipyridina-1(1,2)-benzenacycloundecaphane 4,4-dioxide]
564	410	–	CN1CCCCCCN(C)c2ncccc2-c2nc(ccc2C(F)(F)F)NS(=O)(=O)c2cccc1n2 [Compound 8, 6,13-dimethyl-2^3-(trifluoromethyl)-4-thia-3,6,13-triaza-1(3,2),2,5(2,6)-tripyridinacyclotridecaphane 4,4-dioxide]
664	2150	–	O=S1(=O)Nc2ccc(Cl)c(n2)-c2ccccc2CCCCCOc2cccc1n2 [Compound 113, 2^3-chloro-6-oxa-4-thia-3-aza-2,5(2,6)-dipyridina-1(1,2)-benzenacycloundecaphane 4,4-dioxide]
490	1620	–	Cc1ccc2nc1-c1ccccc1CCCCCN(CCCCO)c1cccc(n1)S(=O)(=O)N2 [Compound 19, 6-(4-hydroxybutyl)-2^3-methyl-4-thia-3,6-diaza-2,5(2,6)-dipyridina-1(1,2)-benzenacycloundecaphane 4,4-dioxide]
226	1220	–	O=S1(=O)Nc2ccc(C(F)(F)F)c(n2)-c2ccccc2CCCCCN(CCN2CCCC2)c2cccc1n2 [Compound 122, 6-(2-(pyrrolidin-1-yl)ethyl)-2^3-(trifluoromethyl)-4-thia-3,6-diaza-2,5(2,6)-dipyridina-1(1,2)-benzenacycloundecaphane 4,4-dioxide]
569	457	–	O=C1c2ccccc2C(=O)N1CCCN1CCCCCc2ccccc2-c2nc(ccc2C(F)(F)F)NS(=O)(=O)c2cccc1n2 [Compound 133, 2-(3-(4,4-dioxido-2^3-(trifluoromethyl)-4-thia-3,6-diaza-2,5(2,6)-dipyridina-1(1,2)-benzenacycloundecaphane-6-yl)propyl)isoindoline-1,3-dione]
–	295	–	CCOC(=O)C(C)(C)CN1CCCCCCc2ccccc2-c2nc(ccc2C(F)(F)F)NS(=O)(=O)c2cccc1n2 [Compound 32, ethyl 3-(4,4-dioxido-2^3-(trifluoromethyl)-4-thia-3,6-diaza-2,5(2,6)-dipyridina-1(1,2)-benzenacyclododecaphane-6-yl)-2,2-dimethylpropanoate]
448	281	–	CC1(C)O[C@@H](CO)[C@H](CN2CCCCCc3ccccc3-c3nc(ccc3C(F)(F)F)NS(=O)(=O)c3cccc2n3)O1 [Compound 34, 6-(((4S,5S)-5-(hydroxymethyl)-2,2-dimethyl-1,3-dioxolan-4-yl)methyl)-2^3-(trifluoromethyl)-4-thia-3,6-diaza-2,5(2,6)-dipyridina-1(1,2)-benzenacycloundecaphane 4,4-dioxide]
651	154	–	O=C(O)CC[C@H]1CCCCc2ccccc2-c2nc(ccc2C(F)(F)F)NS(=O)(=O)c2cccc(n2)N1 [Compound 135, (R)-3-(4,4-dioxido-2^3-(trifluoromethyl)-4-thia-3,6-diaza-2,5(2,6)-dipyridina-1(1,2)-benzenacycloundecaphane-7-yl)propanoic acid]
29	2800	–	O=S1(=O)Nc2ccc(C(F)(F)F)c(n2)-c2cccnc2NCCCNc2cccc1n2 [Compound 10, 2^3-(trifluoromethyl)-4-thia-3,6,10-triaza-1(3,2),2,5(2,6)-tripyridinacyclodecaphane 4,4-dioxide]
97.1	3310	–	O=S1(=O)Nc2ccc(Cl)c(n2)-c2ccccc2CCCOc2cccc1n2 [Compound 114, 2^3-chloro-6-oxa-4-thia-3-aza-2,5(2,6)-dipyridina-1(1,2)-benzenacyclononaphane 4,4-dioxide]
–	187	–	O=S1(=O)Nc2ccc(C(F)(F)F)c(n2)-c2ccccc2CCCCCCCN(CCCCCO)c2cccc1n2 [Compound 41, 6-(5-hydroxypentyl)-2^3-(trifluoromethyl)-4-thia-3,6-diaza-2,5(2,6)-dipyridina-1(1,2)-benzenacyclotridecaphane 4,4-dioxide]
–	159	–	O=S1(=O)Nc2ccc(C(F)(F)F)c(n2)-c2ccccc2CCCCCCCCN(CCCCO)c2cccc1n2 [Compound 44, 6-(4-hydroxybutyl)-2^3-(trifluoromethyl)-4-thia-3,6-diaza-2,5(2,6)-dipyridina-1(1,2)-benzenacyclotetradecaphane 4,4-dioxide]
356	866	–	O=S1(=O)Nc2ccc(C(F)(F)F)c(n2)-c2ccccc2CCCOCCNc2cccc1n2 [Compound 119, 2^3-(trifluoromethyl)-9-oxa-4-thia-3,6-diaza-2,5(2,6)-dipyridina-1(1,2)-benzenacyclododecaphane 4,4-dioxide]
